Data published in patent US8859796B1, “Synthetic and purification methods for phosphaplatin compounds and uses thereof” (Phosplatin Therapeutics LLC, priority 2012, dated 2014).

Tests used:
[1] = Stability of saturated aqueous solutions of (R,R)-DACH-2 at pH 2, composition by HPLC; assay type: physicochemical
Procedure: The resultant suspension was stirred for 30 min and the pH adjusted to 2 with 0.1M nitric acid. The solution was filtered through a 0.45 micron Whatman polypropylene filter to afford a clear solution. Samples of the solution were stored at 25° C. and 5° C. At the time intervals shown in Tables 2 and 3 the solution composition was determined by HPLC.

[2] = Long-term stability study of the recrystallized (R,R)-DACH-2 sample; assay type: physicochemical; conditions: not exceeding 25° C., humidity 60±5%
Procedure: A long-term stability study of the recrystallized sample was conducted.

[3] = aqueous solution, pH 2, 5° C., 0.1 h
[4] = aqueous solution, pH 2, 5° C., 2 h
[5] = aqueous solution, pH 2, 5° C., 4 h
[6] = aqueous solution, pH 2, 5° C., 8 h
[7] = aqueous solution, pH 2, 5° C., 16 h
[8] = aqueous solution, pH 2, 5° C., 24 h
[9] = aqueous solution, pH 2, 5° C., 48 h
[10] = aqueous solution, pH 2, 25° C., 0.1 h
[11] = aqueous solution, pH 2, 25° C., 2 h
[12] = aqueous solution, pH 2, 25° C., 4 h
[13] = aqueous solution, pH 2, 25° C., 8 h
[14] = aqueous solution, pH 2, 25° C., 16 h
[15] = aqueous solution, pH 2, 25° C., 24 h
[16] = aqueous solution, pH 2, 25° C., 48 h
[17] = after 14 months, initial 0.01% (wt/wt)

In the case of `NC1CCCCC1N.O=P([O-])([O-])OP(=O)(O)O.[Pt+2]` [(R,R)-DACH-2, cyclohexanediamine (pyrophosphato)platinum (II)], the “(R,R)-DACH-2” value [1, 3] is reported as 12.8 HPLC Area %, the “(R,R)-DACH-2 concentration” value [1, 3] is reported as 0.1 mg/mL and the “(R,R)-DACH-2 dimer” value [1, 3] is reported as 16.8 HPLC Area %. The “(R,R-DACH-2 water adduct)” value [1, 3] was 2.5 HPLC Area %, the Pt-DACH-diaquo [1, 3] was 68.3 HPLC Area % and the “(R,R)-DACH-2” value [1, 4] was 11.7 HPLC Area %. For the same compound, the “(R,R)-DACH-2 concentration” value [1, 4] was 2 mg/mL, the “(R,R)-DACH-2 dimer” value [1, 4] was 24.2 HPLC Area % and the “(R,R-DACH-2 water adduct)” value [1, 4] was 2.22 HPLC Area %. The Pt-DACH-diaquo [1, 4] was 60.9 HPLC Area %, the “(R,R)-DACH-2” value [1, 5] was 10.6 HPLC Area % and the “(R,R)-DACH-2 concentration” value [1, 5] was 4 mg/mL. For the same compound, the “(R,R)-DACH-2 dimer” value [1, 5] was 29.2 HPLC Area %, the “(R,R-DACH-2 water adduct)” value [1, 5] was 2.02 HPLC Area % and the Pt-DACH-diaquo [1, 5] was 57.2 HPLC Area %. For the same compound, the “(R,R)-DACH-2” value [1, 6] was 9.6 HPLC Area %, the “(R,R)-DACH-2 concentration” value [1, 6] was 8 mg/mL and the “(R,R)-DACH-2 dimer” value [1, 6] was 33.5 HPLC Area %. For the same compound, the “(R,R-DACH-2 water adduct)” value [1, 6] was 1.81 HPLC Area %, the Pt-DACH-diaquo [1, 6] was 53.6 HPLC Area % and the “(R,R)-DACH-2” value [1, 7] was 9.3 HPLC Area %. For the same compound, the “(R,R)-DACH-2 concentration” value [1, 7] was 16 mg/mL, the “(R,R)-DACH-2 dimer” value [1, 7] was 35.1 HPLC Area % and the “(R,R-DACH-2 water adduct)” value [1, 7] was 1.63 HPLC Area %. For the same compound, the Pt-DACH-diaquo [1, 7] was 52.5 HPLC Area %, the “(R,R)-DACH-2” value [1, 8] was 9.4 HPLC Area % and the “(R,R)-DACH-2 concentration” value [1, 8] was 24 mg/mL. The “(R,R)-DACH-2 dimer” value [1, 8] was 36.2 HPLC Area %, the “(R,R-DACH-2 water adduct)” value [1, 8] was 1.43 HPLC Area % and the Pt-DACH-diaquo [1, 8] was 51.5 HPLC Area %. For the same compound, the “(R,R)-DACH-2” value [1, 9] was 9.3 HPLC Area %, the “(R,R)-DACH-2 concentration” value [1, 9] was 48 mg/mL and the “(R,R)-DACH-2 dimer” value [1, 9] was 34.7 HPLC Area %. For the same compound, the “(R,R-DACH-2 water adduct)” value [1, 9] was 1.27 HPLC Area %, the Pt-DACH-diaquo [1, 9] was 53.8 HPLC Area % and the “(R,R)-DACH-2” value [1, 10] was 67.1 HPLC Area %. For the same compound, the “(R,R)-DACH-2 concentration” value [1, 10] was 2.38 mg/mL, the “(R,R)-DACH-2 dimer” value [1, 10] was 2.9 HPLC Area % and the “(R,R-DACH-2 water adduct)” value [1, 10] was 13.3 HPLC Area %. For the same compound, the Pt-DACH-diaquo [1, 10] was 16.7 HPLC Area %, the “(R,R)-DACH-2” value [1, 11] was 50.6 HPLC Area % and the “(R,R)-DACH-2 concentration” value [1, 11] was 1.75 mg/mL. The “(R,R)-DACH-2 dimer” value [1, 11] was 14.3 HPLC Area %, the “(R,R-DACH-2 water adduct)” value [1, 11] was 9.3 HPLC Area % and the Pt-DACH-diaquo [1, 11] was 25.8 HPLC Area %. For the same compound, the “(R,R)-DACH-2” value [1, 12] was 48.7 HPLC Area %, the “(R,R)-DACH-2 concentration” value [1, 12] was 1.59 mg/mL and the “(R,R)-DACH-2 dimer” value [1, 12] was 17.4 HPLC Area %. The “(R,R-DACH-2 water adduct)” value [1, 12] was 9.2 HPLC Area %, the Pt-DACH-diaquo [1, 12] was 24.8 HPLC Area % and the “(R,R)-DACH-2” value [1, 13] was 51.6 HPLC Area %. The “(R,R)-DACH-2 concentration” value [1, 13] was 1.41 mg/mL, the “(R,R)-DACH-2 dimer” value [1, 13] was 13.4 HPLC Area % and the “(R,R-DACH-2 water adduct)” value [1, 13] was 9.5 HPLC Area %. For the same compound, the Pt-DACH-diaquo [1, 13] was 25.5 HPLC Area %, the “(R,R)-DACH-2” value [1, 14] was 56.5 HPLC Area % and the “(R,R)-DACH-2 concentration” value [1, 14] was 1.04 mg/mL. For the same compound, the “(R,R)-DACH-2 dimer” value [1, 14] was 8.1 HPLC Area %, the “(R,R-DACH-2 water adduct)” value [1, 14] was 9.8 HPLC Area % and the Pt-DACH-diaquo [1, 14] was 25.6 HPLC Area %. The “(R,R)-DACH-2” value [1, 15] was 57.6 HPLC Area %, the “(R,R)-DACH-2 concentration” value [1, 15] was 0.88 mg/mL and the “(R,R)-DACH-2 dimer” value [1, 15] was 7 HPLC Area %. The “(R,R-DACH-2 water adduct)” value [1, 15] was 10.1 HPLC Area %, the Pt-DACH-diaquo [1, 15] was 25.3 HPLC Area % and the “(R,R)-DACH-2” value [1, 16] was 59.5 HPLC Area %. For the same compound, the “(R,R)-DACH-2 concentration” value [1, 16] was 0.62 mg/mL, the “(R,R)-DACH-2 dimer” value [1, 16] was 5.5 HPLC Area % and the “(R,R-DACH-2 water adduct)” value [1, 16] was 9.3 HPLC Area %. For the same compound, the Pt-DACH-diaquo [1, 16] was 25.9 HPLC Area %, the “Degradation rate, conclusion in words” value ([1]; aqueous solution, pH 2, as temperature is reduced (25° C. to 5° C.)) was “significantly reduced” and the “Stability in aqueous solution, conclusion in words” value ([1]; saturated aqueous solution, pH 2) was “readily suffers hydrolytic degradation”. For the same compound, the “(R,R)-DACH-2 purity on re-testing” value ([2]; after 14 months, HDPE bottle, initial 99.4% w/w) was 98.4 % (wt/wt), the “chloride content on re-testing” value [2, 17] was 0.01% (wt/wt) and the “nitrate content on re-testing” value [2, 17] was 0.01% (wt/wt). For the same compound, the “pyrophosphate content on re-testing” value ([2]; after 14 months, initial 0.17% (wt/wt)) was 0.17% (wt/wt), the “DACH-Pt—Cl2 content on re-testing” value ([2]; after 14 months, initial not detected) was “not detected” and the “Long-term stability, conclusion in words” value ([2]; purified solid, 14 months) was “stable”.
